Measurements from patent publication US12168026B2, “Methods and compositions for wound healing” (priority 2018, dated 2024).
Counter-ions that a name gives are not always drawn.

Legend:
[1] = system: P. aeruginosa (ATCC 27853); experiment: Antibacterial activity of solutions of Bp, Ag+ or their mixture (viable counts after 24-h incubation); assay type: cell-based; conditions: for CFU decrease of P. aeruginosa: 10^7 CFU in 500 μL HBSS
Method: Viable bacterial counts remaining in suspension following the 24-h incubation were determined by dilution and plating.

[2] = system: NIH 3T3 mouse fibroblast cells
Method: The mouse fibroblast cell line NIH-3T3, obtained from ATCC (Manassas, VA) was used for all in vitro cell-based experiments. Cell cultures were maintained at 37° C. and were fed with DMEM growth medium supplemented with 10% calf bovine serum (CBS), 2×10^−[…] (Invitrogen, Carlsbad, CA), and 1% Penicillin Streptomycin. Cells were seeded with 1.0×10^4 cells/well of the 96-well plate and were allowed to attach on the bottom of wells for 24 h. After incubation, cells were washed with […] Phosphate Buffer Saline (PBS); pH 7.4). […] Cells treated with 1% Triton X-100 (Sigma Aldrich, St Louis, MO) were used as controls for complete cell death. For the evaluation of cytotoxicity, the CellTiter 96 AQueous non-radioactive assay (Promega, Germany) was performed. This assay measures the conversion (reduction) of a weakly colored tetrazolium salt of MTS (3-{4,5-dimethylthiazol-2-yl}-5-{3-carboxymethoxyphenyl}-2-{4-sulfophenyl}-2H-tetrazolium) to brightly colored formazan by mitochondrial dehydrogenase of metabolically active (live) cells. The amount of formazan formed varies proportionally with the number of live cells. The wells were rinsed with PBS to remove non-adherent cells and then incubated in a serum-free medium containing 20% MTS reagent for 3 h at 37° C. Then, the absorbance was read in a spectrophotometric plate reader at 490 nm (BioTek Instruments, Winooski, VT).
Briefly, fibroblasts were allowed to attach on the bottom of 96-well plates (within 24-h incubation). […] Following incubation, the viability of the cells was determined by measuring cellular mitochondrial dehydrogenase activity (see Materials and Methods for details).

[3] = system: P. aeruginosa (ATCC 27853); conditions: Ag+ 0.4 μg mL^−1; cited from earlier work
rats wounds = conditions: 5 mg mL^−1 at local incisions of rats wounds; cited from earlier work
[4] = Bp 2.5 mg mL^−1; cited from earlier work

Compound	CFU decrease of P. aeruginosa ([1]; Ag+ 0.3 μg mL^−1, 24 h) [log10 CFU]	CFU decrease of P. aeruginosa ([1]; Ag+ 0.4 μg mL^−1, 24 h) [log10 CFU]	toxicity toward fibroblasts ([2]; Ag+ 0.4 μg mL^−1 and up to 1.2 μg mL^−1, 24 h)	effect on viability of mammalian cells such as fibroblasts ([2]; Ag+ 1.7 μg mL^−1 and Bp 0.25 mg mL^−1)	CFU decrease of P. aeruginosa (reported) [3] [log10 CFU]	antimicrobial activity ([1]; Bp 0.5 mg mL^−1, 24 h)	collagen production (rats wounds)	inflammation (rats wounds)	antimicrobial activity (reported) [4]	cytotoxicity limit (concentration of agent that caused a ~50% decrease in viability of cells) ([2]; mouse, 24 h, pH 7.4) [µg/mL]
O=[N+]([O-])[O-].[Ag+] [Ag^+, Silver nitrate]	3	6	not to cause significant toxicity	do not significantly reduce the viability	6					
CCCCN1CCCCC1C(=O)Nc1c(C)cccc1C (stereo not shown) [Bp, bupivacaine hydrochloride monohydrate]						does not exhibit antimicrobial activity	decrease collagen production	significant inflammation	exhibit antimicrobial activity	1.2
